The values that follow come from patent publication US4062950A, “Amino sugar derivatives” (priority 1973, dated 1977).

One series can be described thus: Solubility. Format: physicochemical.
The target of a further series is T1, saccharase (Sus scrofa, UniProt P56729).
T1 construct: sucrase subunit of the sucrase-isomaltase complex hydrolyses sucrose
In words: In vitro saccharase test. Format: biochemical, pig. The note with it: for Saccharase Inhibition: Table II; for Saccharase Inhibition In Vitro: Table IV; for saccharase inhibiting activity of isolated product: product of the Examples. The protocol:
One saccharase inhibitor unit (SIU) is defined as the amount of inhibitor which inhibits two saccharase units to the extent of 50%. One saccharase unit (SU) is the amount of enzyme which under the test conditions specified splits 1 μmol of sucrose to glucose and fructose per minute. The μmols of glucose formed are determined quantitatively by means of the glucose oxidase reaction under conditions under which a further splitting of the sucrose by the saccharase no longer takes place. To carry out the test, 0.05 ml of solubilized saccharase [from the mucous membrane of the small intestine of the pig, according to B. Borgastrom, A. Dahlquist, Acta Chem. Scand. 12, (1958), page 1,997], diluted with 0.1 M sodium maleate buffer of pH 6.0 to a SU content adjusted to 0.12 SU is mixed with 0-20 μg of inhibitor or 0-20 μl of the solution to be tested and brought up to 0.1 ml with 0.1 M sodium maleate buffer of pH 6.0. The mixture is equilibrated for 10 minutes at 35° C and 0.1 ml of an 0.05 M sucrose solution in 0.1 M sodium maleate buffer of pH 6.0, pre-warmed to 35° C, is then added. The mixture is incubated for 20 minutes at 35° C, the saccharase reaction is stopped by addition of 1 ml of glucose oxidase reagent, and the incubation is continued for a further 30 minutes at 35° C. (The glucose oxidase reagent is prepared by dissolving 2 mg of glucose oxidase, Boehringer, No. 15,423, in 100 ml of 0.565 M tris-HCl buffer of pH 7.0 and subsequently adding 1 ml of detergent solution (2 g of Triton X 100 + 8 g of 95% strength and analytical grade ethanol), 1 ml of dianisidine solution (260 mg of o-dianisidine. 2HCl in 20 ml of H2 O) and 0.5 ml of 0.1% strength aqueous peroxidase solution, Boehringer, No. 15,302). Thereafter, 1 ml of 50% strength H2 SO4 is added and a measurement carried out at 545 nm against a corresponding blank. To evaluate the results, the percentage inhibition of the saccharase employed is calculated and converted to SIU/g of SIU/liter from the 50% inhibition point, using a glucose calibration curve.

A further series deals with glucose absorption. Description: Effect on glucose absorption in fasting rats. Type of series: in vivo, rat. The protocol: The produce an alimentary hyperglycemia and hyperinsulinaemia, groups of 6 fasting rats are given (a) 2.5 g of sucrose, (b) 2.5 g of maltose or (c) 1 g of boiled starch orally, in aqueous solution or suspension. Six other rats are given the same carbohydrates in the same amount and a glycoside hydrolase inhibitor in the amount indicated. In addition, six other rats are given an appropriate volume of saline. The blood glucose and the serum insulin are then measured at short intervals of time, in the blood from the retro-orbital venous plexus. Blood glucose determinations are carried out in the Auto-Analyser device (Technicon), according to Hoffmann: J. biol. Chem. 120, 51 (1937), or enzymatically by means of glucose oxidase and o-dianisidine hydrochloride and the serum insulin determinations are carried out according to the method of Hales and Randle: Biochem. J. 88, 137 (1963).

“And” between values parts separate entries of the source, which are not always exact repeats. Equal values may be shown once.

T1 sequence (P56729 with tags, fused parts or gaps): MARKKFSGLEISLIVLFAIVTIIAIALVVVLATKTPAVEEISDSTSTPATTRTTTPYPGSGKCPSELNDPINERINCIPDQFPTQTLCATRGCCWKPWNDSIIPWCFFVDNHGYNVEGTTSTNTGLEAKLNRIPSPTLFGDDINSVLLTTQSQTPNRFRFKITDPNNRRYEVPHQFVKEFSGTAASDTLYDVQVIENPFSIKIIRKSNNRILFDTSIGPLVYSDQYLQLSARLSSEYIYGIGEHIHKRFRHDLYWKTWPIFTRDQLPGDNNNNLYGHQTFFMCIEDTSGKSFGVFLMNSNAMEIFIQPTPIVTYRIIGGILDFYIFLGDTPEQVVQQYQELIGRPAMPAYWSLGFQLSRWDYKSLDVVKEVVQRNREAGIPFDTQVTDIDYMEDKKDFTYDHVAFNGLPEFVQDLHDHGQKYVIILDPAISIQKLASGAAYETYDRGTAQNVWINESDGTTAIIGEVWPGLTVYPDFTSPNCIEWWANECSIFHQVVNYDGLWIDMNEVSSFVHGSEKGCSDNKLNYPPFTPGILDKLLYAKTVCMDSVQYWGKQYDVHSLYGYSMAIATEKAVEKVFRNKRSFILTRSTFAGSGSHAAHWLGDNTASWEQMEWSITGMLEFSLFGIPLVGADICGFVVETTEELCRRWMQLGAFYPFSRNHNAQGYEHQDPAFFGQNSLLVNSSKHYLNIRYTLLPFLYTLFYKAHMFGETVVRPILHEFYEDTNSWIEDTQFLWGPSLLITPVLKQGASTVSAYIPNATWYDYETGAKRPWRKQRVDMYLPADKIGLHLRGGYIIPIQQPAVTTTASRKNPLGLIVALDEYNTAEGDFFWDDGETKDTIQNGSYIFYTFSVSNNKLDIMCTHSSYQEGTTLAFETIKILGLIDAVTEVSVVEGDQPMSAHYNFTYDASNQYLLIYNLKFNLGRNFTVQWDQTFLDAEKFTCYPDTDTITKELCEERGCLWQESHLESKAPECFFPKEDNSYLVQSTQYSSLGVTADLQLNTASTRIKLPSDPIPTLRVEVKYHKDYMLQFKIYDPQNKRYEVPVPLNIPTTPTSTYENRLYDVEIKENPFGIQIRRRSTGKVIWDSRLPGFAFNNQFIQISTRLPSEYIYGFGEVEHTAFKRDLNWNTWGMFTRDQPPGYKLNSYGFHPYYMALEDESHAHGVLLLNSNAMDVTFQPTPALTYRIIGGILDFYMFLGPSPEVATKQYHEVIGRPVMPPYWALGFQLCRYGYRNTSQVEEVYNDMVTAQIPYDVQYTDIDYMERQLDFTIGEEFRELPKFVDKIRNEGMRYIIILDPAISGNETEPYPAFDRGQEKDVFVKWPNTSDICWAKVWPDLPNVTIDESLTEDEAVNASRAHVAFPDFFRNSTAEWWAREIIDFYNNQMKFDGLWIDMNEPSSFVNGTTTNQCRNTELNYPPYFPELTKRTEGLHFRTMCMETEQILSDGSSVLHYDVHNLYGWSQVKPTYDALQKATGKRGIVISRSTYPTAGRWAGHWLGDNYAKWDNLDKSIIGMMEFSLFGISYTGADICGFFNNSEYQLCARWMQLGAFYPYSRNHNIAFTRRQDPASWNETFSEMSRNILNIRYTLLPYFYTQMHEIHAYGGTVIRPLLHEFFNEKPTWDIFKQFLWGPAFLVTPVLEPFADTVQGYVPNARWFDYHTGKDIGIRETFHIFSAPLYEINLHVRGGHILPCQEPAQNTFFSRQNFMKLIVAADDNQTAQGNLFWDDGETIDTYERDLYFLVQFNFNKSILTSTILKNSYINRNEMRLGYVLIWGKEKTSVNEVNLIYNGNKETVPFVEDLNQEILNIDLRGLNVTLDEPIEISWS

Take `C[C@H]1O[C@H](O[C@H]2[C@H](O)[C@@H](O)C(O)O[C@@H]2CO)[C@H](O)[C@@H](O)[C@@H]1N[C@H]1C=C(CO)[C@@H](O)[C@H](O)[C@H]1O` (stereo partly drawn) [Formula IIB, O-{4,6-bisdesoxy-4-[1 S-(1,4,6/5)-4,5,6-trihydroxy-3-hydroxymethylcyclohex-2-en-1-ylamino]-α-D-glucopyranosyl}-(1→4)-D-glucopyranose]: in the series “Solubility” (water, dimethylformamide, dimethylsulfoxide, methanol and hot ethanol), the solubility result was “good solubility”. The “Saccharase inhibition relative to the derivative having two units” value on saccharase (in vitro, in words) is listed as “only half as much”. Also, on saccharase (in vitro), the “Saccharase Inhibition” value is recorded as 30,000 SIU/g and the “Saccharase Inhibition In Vitro” value is listed as 30 SIU/mg. Moreover, at saccharase (listed as one glucose unit), the “saccharase inhibiting activity of isolated product” value (“saccharase inhibiting activity” below) was 30,000 SIU/g and 35,000 SIU/g.

For `C[C@H]1O[C@H](O[C@H]2[C@H](O)[C@@H](O)[C@@H](O[C@H]3[C@H](O)[C@@H](O)C(O)O[C@@H]3CO)O[C@@H]2CO)[C@H](O)[C@@H](O)[C@@H]1N[C@H]1C=C(CO)[C@@H](O)[C@H](O)[C@H]1O` (stereo partly drawn) [Formula IIIB, O-{4,6-bisdesoxy-4-[1 S-(1,4,6/5)-4,5,6-trihydroxy-3-hydroxymethylcyclohex-2-en-1-ylamino]-α-D-glucopyranosyl}-(1→4)-O-α-D-glucopyranosyl-(1→4)-D-glucopyranose], in the series “Solubility”, the water solubility result is on record as “readily water-soluble”. Also, the “Blood Glucose (Mean ± SD)” value in the series with glucose absorption (glucose + 30 mg, 15 Min.) amounted to 135 ± 13 mg%; in the series with glucose absorption (glucose + 30 mg, 30 Min.), 128 ± 5.5 mg%; in the series on glucose absorption (glucose + 30 mg, 45 Min.), 132 ± 7.3 mg%; in the series with glucose absorption (glucose + 60 mg, 15 Min.) it was 125 ± 13 mg%; in the series with glucose absorption (glucose + 60 mg, 30 Min.), 118 ± 2.9 mg%; in the series with glucose absorption (glucose + 60 mg, 45 Min.), 130 ± 9.0 mg%. In addition, the “Saccharase inhibition, in words” value at saccharase (in vitro) is “most pronounced”. Further, the “Saccharase Inhibition” value at saccharase (in vitro) is recorded as 68,000 SIU/g. For the same compound, the “Saccharase Inhibition In Vitro” value at saccharase (in vitro) amounted to 68 SIU/mg. In addition, the “saccharase inhibiting activity” value on saccharase (listed as 2 glucose units) was 50,000 SIU/g and 60,000 SIU/g; at saccharase (listed as 2 units), 68,000 SIU/g; on saccharase (listed as two glucose units), 65,000 SIU/g.

In the case of `C[C@H]1O[C@H](O[C@H]2[C@H](O)[C@@H](O)[C@@H](O[C@H]3[C@H](O)[C@@H](O)C(O)O[C@@H]3CO)O[C@@H]2CO)[C@H](O)[C@@H](O)[C@@H]1N[C@H]1C=C(CO)[C@@H](O[C@H]2O[C@H](CO)[C@@H](O)[C@H](O)[C@H]2O)[C@H](O)[C@H]1O` (stereo partly drawn) [Formula V, O-{4,6-bisdesoxy-4-[1 S-(1,4,6/5)-4,5,6-trihydroxy-3-hydroxymethyl-4-O-α-D-glucopyranosyl-(1→4)-cyclohex-2-en-1-ylamino]-α-D-glycopyranosyl}-(1→4)-O-α-D-glucopyranosyl-(1→4)-D-glucopyranose], on saccharase (in vitro), the “Saccharase Inhibition” value is 21,000 SIU/g and the “Saccharase Inhibition In Vitro” value came out at 21 SIU/mg. On saccharase, the “saccharase inhibiting activity” value is recorded as 21,000 SIU/g.
